Assay results: patent publication US12509446B2, “FYN and VEGFR2 kinase inhibitors” (ROTTAPHARM BIOTECH S.R.L., priority 2019, dated 2025)

Legend:
IL-6 = assay: Gene expression in rat articular chondrocytes under IL-1β stimulation, IL-6; format: cell-based; details: for IL-6 gene expression, percentage of inhibitory effect at the highest non toxic concentration: 10 μM, 6 h
Method: (§1) For gene expression analysis, 10 days after plating, the medium was changed and substituted with DMEM GlutaMAX I 0.4% to synchronize the cells. The cells were then co-treated in DMEM GlutaMAX I 0.4% with different concentrations of the test compounds and […] at a final concentration of 2 ng/ml for 6 h and 24 h. The test compound concentrations used have been chosen on the basis of the toxicity data.
(§2) At the end of the incubation, the supernatant was discarded, the cell were washed with cold PBS1X and scraped with 200 μl of RNA lysis buffer 1X (Nucleic Acid Purification Lysis Solution, Applied Biosystems).
(§3) Total RNA was purified using ABI Prism™ 6100 Nucleic Acid PrepStation (Applied Biosystems) following manufacturer's instructions.
(§4) Total RNA was retrotranscribed using the High-Capacity cDNA Archive Kit (Applied Biosystems-Thermo Fisher Scientific) following manufacturer's instructions.
(§5) The specific probes and primers for RealTime PCR were from Applied Biosystems (Thermo Fisher Scientific) as Assays-on-Demand™, while the probe and primers for the endogenous control 18S was a PDAR (Pre-Developed TaqMan® Assay Reagents—Applied Biosystems-Thermo Fisher Scientific).
(§6) The assays were designed to amplify target cDNA without amplifying genomic DNA.
(§7) Gene expression analysis for IL-1β, IL-6 and ADAMTS-5 were performed at 6 h incubation, while the gene expression analysis for MMP3, MMP13 and COX2 were performed at 24 h incubation.
(§8) For each compound the maximal concentration tested was dependent on the toxicity results obtained on primary rat chondrocytes.
(§9) The data analysis, with the normalisation on the amplified values for the 18S was done following the specific instruction of Applied Biosystems for the relative quantification of gene expression.

COX2 = assay: Gene expression in rat articular chondrocytes under IL-1β stimulation, COX2; format: cell-based; details: for IC50: Rattus norvegicus, Chondrocyte, 24 h incubation
MMP13 = assay: Gene expression in rat articular chondrocytes under IL-1β stimulation, MMP13; format: cell-based; details: 10 μM, 24 h
Method: as §1, §2, §3, §4, §5, §6, §7, §8, §9

[1] = system: bovine nasal septum cartilage; assay: Inhibition of cartilage degradation (GAG release) induced by IL-1α in a bovine in vitro model; format: cell-based; set-up: key to Bovine cartilage degradation induced by IL-1α, no effect: ne: no effect
Method: Nasal septum cartilage was collected from an eight months-old male bovine in a local slaughterhouse.
Tissue was sprayed with ethanol 70% and immediately put in sterile PBS with Antibiotic-Antimycotic stabilized solution (PBS-AASS). It was cut in order to obtain small punches (diameter 2 mm, 1 mm-thick). washed with sterile PBS-AASS, the slices were transferred in a 96X well plate (one piece per well) in DMEM 10%+AASS. 48 h later the cartilage was stimulated in white DMEM+0.1% BSA+AASS with IL-1α […] in the absence or presence of the studied compounds.
The compounds concentration used in this analysis was chosen depending on the toxicity results obtained in rat primary chondrocytes at 48 h of incubation.
After 48 h stimulation, the culture medium was collected and stored at −80° C. The cartilage punches were digested with papain at 65° C. for 2 h in phosphate buffer (0.05M pH 6.5 with 2 mM N-acetil-L-cisteine and 2 mM EDTA).
The glycosaminoglycan (GAG) determination was done by a colorimetric assay with 1,9 dimethyl methylene blue (DMB).
Digested cartilage samples were diluted in PBS-BSA 1%. To 100 μl of diluted samples or standard we added 100 μl DMB 2X. After 5-20 min incubation the samples were read at 590 nm (Titertek Multiscan Plus).
The cartilage degradation induced by IL-1α was expressed as: GAG (medium)/total GAG (medium+cartilage)×100

IL-1β = assay: Gene expression in rat articular chondrocytes under IL-1β stimulation, IL-1β; format: cell-based; details: for IC50: Rattus norvegicus, Chondrocyte, 6 h incubation
Method: as §1, §2, §3, §4, §5, §6, §7, §8, §9

NF-kB = assay: Gene reporter (GR) assay, NF-kB activation after TNFα in JB6 Cl 41-5a (P+) cells; format: cell-based, murine; details: Mus musculus, JB6 Cl 41-5a, TNFα 2 ng/ml, non toxic concentrations; read-out: Gene reporter (GR) inhibition IC50
Excerpt: To determine if the compounds of the invention were active also in a cellular model, a gene reporter assay was established in a cell line (JB6 Cl 41-5a (P+)) know to activate Fyn kinase via an inflammatory stimuli (TNFα). GR assay measures the activation of the nuclear transcription factor NF-kB, situated down-stream the Fyn activation pathway. Products active in this analysis has to penetrate in the cell and inhibit the activation pathway of NF-kB.
The murine epithelial cell line JB6 Cl 41-5a (P+) (ATCC® Cat. #CRL-2010) was stably transfected with the pGL4.32[luc2P/NFkB-RE/Hygro] vector (Promega). Clonal selection was achieved by limiting with 80 μg/ml Hygromycin B. The clones were tested for their response to TNFα stimulus.
JB6(P+) NFkB-RE-luc2P transfected cells were used for the analysis of NF-kB activity modulation, after TNFα stimulation, by Fyn-inhibitors.
Cells were pre-treated with the different compounds for 1 h and then stimulated with 2 ng/ml TNFα for 4 h. Each tested condition was analyzed in quadruplicate.
The luciferase analysis was performed with ONE-Glo™+ToxLuciferase Reporter and Cell Viability Assay kit (Promega).

MMP3 = assay: Gene expression in rat articular chondrocytes under IL-1β stimulation, MMP3; format: cell-based; set-up: key to MMP3 gene expression, no effect: ne: no effect; details: 24 h; for MMP3 gene expression, percentage of inhibitory effect at the highest non toxic concentration: 10 μM
Method: as §1, §2, §3, §4, §5, §6, §7, §8, §9

[2] = system: rat primary articular chondrocytes; assay: Toxicity analysis (MTT) in rat primary chondrocytes; details: for First toxic concentration at 24 h: rat primary chondrocytes
Method: Purified chondrocytes were resuspended in DMEM glutaMAX 10% and plated in a 96X well plate for toxicity analysis and in a 6X well plate for gene expression analysis.
For toxicity analysis cells were then treated with the different compounds for 24 and 48 h. At the end of the incubation time, the medium was removed and was substituted with a mixture 10:1 of DMEM glutaMAX 10%—MTT (2 mg/ml) for 1 h at 37° C. in the cell incubator. After this incubation, the precipitated salt was dissolved with 100 μl of DMSO and the plate was read at 540 nm. The toxicity analysis were performed to decide the maximal non toxic concentration of each compound used in the gene expression assay.

ADAMTS-5 = assay: Gene expression in rat articular chondrocytes under IL-1β stimulation, ADAMTS-5; format: cell-based; details: for ADAMTS-5 gene expression, percentage of inhibitory effect at the highest non toxic concentration: 10 μM, 6 h
Method: as §1, §2, §3, §4, §5, §6, §7, §8, §9

VEGFR2 = VEGFR2 (Homo sapiens (Human), UniProt P35968); assay: In vitro VEGFR2 kinase activity assay (Eurofins Cerep); format: biochemical; details: read-out: VEGFR2 KINASE INHIBITION IC50
VEGFR2, sequence (P35968 20-1356): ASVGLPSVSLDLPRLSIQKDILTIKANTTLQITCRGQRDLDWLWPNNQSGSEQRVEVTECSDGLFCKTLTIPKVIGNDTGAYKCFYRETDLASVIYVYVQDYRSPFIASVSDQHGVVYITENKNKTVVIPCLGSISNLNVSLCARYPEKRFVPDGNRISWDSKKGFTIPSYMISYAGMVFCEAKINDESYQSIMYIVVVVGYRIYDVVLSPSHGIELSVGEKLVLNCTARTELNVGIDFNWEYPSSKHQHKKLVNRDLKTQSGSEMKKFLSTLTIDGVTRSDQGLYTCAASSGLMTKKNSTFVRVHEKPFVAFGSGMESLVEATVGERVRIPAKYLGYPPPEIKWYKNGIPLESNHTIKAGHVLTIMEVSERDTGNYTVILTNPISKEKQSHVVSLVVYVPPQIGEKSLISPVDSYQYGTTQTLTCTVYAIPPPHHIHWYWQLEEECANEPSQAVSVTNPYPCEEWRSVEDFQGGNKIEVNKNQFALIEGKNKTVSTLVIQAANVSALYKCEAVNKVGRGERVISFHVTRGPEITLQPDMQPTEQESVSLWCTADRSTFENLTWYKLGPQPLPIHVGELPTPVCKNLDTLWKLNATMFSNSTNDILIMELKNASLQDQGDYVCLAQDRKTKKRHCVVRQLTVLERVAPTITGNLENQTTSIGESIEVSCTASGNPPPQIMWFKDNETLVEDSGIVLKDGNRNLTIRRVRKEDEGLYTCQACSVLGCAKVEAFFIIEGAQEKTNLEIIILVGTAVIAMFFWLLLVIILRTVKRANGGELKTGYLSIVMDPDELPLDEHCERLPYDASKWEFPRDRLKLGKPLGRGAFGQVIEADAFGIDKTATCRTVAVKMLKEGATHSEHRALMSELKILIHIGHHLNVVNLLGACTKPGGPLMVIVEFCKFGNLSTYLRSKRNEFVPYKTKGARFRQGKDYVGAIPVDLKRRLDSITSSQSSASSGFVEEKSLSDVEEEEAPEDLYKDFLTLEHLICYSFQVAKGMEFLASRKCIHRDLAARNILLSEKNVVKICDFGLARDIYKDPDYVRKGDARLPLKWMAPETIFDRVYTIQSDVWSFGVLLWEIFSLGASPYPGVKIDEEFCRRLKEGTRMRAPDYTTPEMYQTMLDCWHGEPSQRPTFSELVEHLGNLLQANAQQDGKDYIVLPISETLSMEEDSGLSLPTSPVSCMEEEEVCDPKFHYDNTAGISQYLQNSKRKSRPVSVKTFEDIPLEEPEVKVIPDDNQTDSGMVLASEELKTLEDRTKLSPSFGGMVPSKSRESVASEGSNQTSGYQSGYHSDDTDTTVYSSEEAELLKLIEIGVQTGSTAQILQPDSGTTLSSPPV
Method: The VEGFR2 kinase inhibitory activity of representative examples of compounds of Formula (I) assays was evaluated in Eurofins Cerep (France). The concentration range of the inhibitors under investigation was from 10^−8 M up to 10^−5 M final concentration. Some compounds were re-tested in a concentration-range starting from 10^−9 M. The results are expressed as a percent of control activity (in the absence of test compound) and the IC50 values were determined by non-linear regression analysis of the inhibition/concentration curves generated with mean replicate values.

Fyn = Fyn (Homo sapiens (Human), UniProt P06241); assay: Z′-LYTE in vitro Fyn kinase activity assay; format: biochemical; details: ATP 50 μM; read-out: FYN KINASE INHIBITION IC50
Fyn, sequence (P06241 whole entry): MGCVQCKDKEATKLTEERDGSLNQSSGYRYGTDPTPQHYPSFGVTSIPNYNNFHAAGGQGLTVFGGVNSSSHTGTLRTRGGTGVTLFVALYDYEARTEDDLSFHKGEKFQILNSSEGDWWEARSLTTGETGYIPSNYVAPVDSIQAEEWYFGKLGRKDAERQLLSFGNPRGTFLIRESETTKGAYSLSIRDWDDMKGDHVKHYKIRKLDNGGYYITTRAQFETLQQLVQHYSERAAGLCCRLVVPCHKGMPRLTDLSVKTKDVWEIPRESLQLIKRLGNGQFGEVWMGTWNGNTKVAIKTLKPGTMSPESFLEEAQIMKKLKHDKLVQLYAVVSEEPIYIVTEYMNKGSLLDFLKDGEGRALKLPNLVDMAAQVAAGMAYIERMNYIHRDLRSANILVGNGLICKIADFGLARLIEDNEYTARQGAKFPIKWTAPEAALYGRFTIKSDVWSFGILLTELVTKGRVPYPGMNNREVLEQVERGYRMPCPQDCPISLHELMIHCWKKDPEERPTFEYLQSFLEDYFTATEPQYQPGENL
Method: The Fyn kinase inhibitory activity of representative examples of compounds of Formula (1) was evaluated by Z′-LYTE™ Kinase Assay Platform (Invitrogen). Compounds were evaluated towards active Fyn (full length active, molecular weight 87.1 kDa; Invitrogen). […] Samples representing the 0% inhibition (or total enzymatic activity) were in the presence of compound diluent (1% DMSO final in Reaction Buffer 50 mMHepes, 10 mM MgCl2, 1 mM EGTA, 0.01% Brij-35, pH 7.5). The kinase reaction was carried out in a total volume of 10 μl, for 60 minutes at 25° C. The 0% Phosphorylation (i.e. no ATP) and 100% Phosphorylation Assay Controls, included in each plate, allowed to calculate the percent phosphorylation achieved in the specific reaction well. Results are expressed as percentage of inhibition and the IC50 values were calculated by non-linear curve fitting using GraphPad™ Prism software (version 6 for Windows).

[3] = Rattus norvegicus, Chondrocyte, 6 h incubation

| IC50 (IL-6; [3]) | IC50 (COX2) | IC50 (IL-1β) | IC50 (VEGFR2) | IC50 (Fyn) | IC50 ([1]; Bos taurus, head says nM, cells print μM, 48 h stimulation, read-out: Inhibitory effect on bovine cartilage degradation induced by IL-1α, IC50) | SMILES | MMP13 gene expression, percentage of inhibitory effect at the highest non toxic concentration (MMP13) | inhibition at 3 µM ([1]; Bos taurus, 3 μM, read-out: Bovine cartilage degradation induced by IL-1α, % inhibitory effect at max concentration) | IC50 (NF-kB) | MMP3 gene expression, no effect (MMP3) | First toxic concentration at 48 h in rat primary chondrocytes [2] | First toxic concentration at 24 h [2] | ADAMTS-5 gene expression, percentage of inhibitory effect at the highest non toxic concentration (ADAMTS-5) | IL-6 gene expression, percentage of inhibitory effect at the highest non toxic concentration (IL-6) | COX2 gene expression, percentage of inhibitory effect at the highest non toxic concentration (COX2; 10 μM, 24 h) | IL-1β gene expression, percentage of inhibitory effect at the highest non toxic concentration (IL-1β; 10 μM, 6 h) | MMP3 gene expression, percentage of inhibitory effect at the highest non toxic concentration (MMP3) | Bovine cartilage degradation induced by IL-1α, no effect [1] | IC50 (ADAMTS-5; [3]) |
| --- | --- | --- | --- | --- | --- | --- | --- | --- | --- | --- | --- | --- | --- | --- | --- | --- | --- | --- | --- |
| 1600 nM | 3100 nM | 2100 nM |  |  |  | Cc1ccc(NC(=O)c2cccc(S(C)(=O)=O)c2)cc1CCc1cc(Nc2cnccn2)[nH]n1 [Compound 1, N-(4-methyl-3-(2-(5-(pyrazin-2-ylamino)-1H-pyrazol-3-yl)ethyl)phenyl)-3-(methylsulfonyl)benzamide] | 10 μM 38% | 88% | 5080 nM | ne | 10 µM | >10 µM | 10 μM 38% |  |  |  |  |  |  |
|  |  |  | < 10 nM | 10 nM | 800 nM | Cc1ccc(NC(=O)c2ccnc(C(C)(C)C#N)c2)cc1CCc1cc(Nc2cnccn2)[nH]n1 [Compound 2, 2-(2-cyanopropan-2-yl)-N-(4-methyl-3-(2-(5-(pyrazin-2-ylamino)-1H-pyrazol-3-yl)ethyl)phenyl)isonicotinamide] | 10 μM 99% |  | 312 nM |  | >10 µM | >10 µM | 10 μM 94% | 10 μM 100% | 10 μM 100% | 10 μM 100% | 10 μM 92% |  |  |
|  | 1400 nM | 1700 nM | < 10 nM | 21 nM |  | CCNC1(c2ccc(C(=O)Nc3ccc(C)c(CCc4cc(Nc5cnccn5)[nH]n4)c3)cc2)CC1 [Compound 4, 4-(1-(ethylamino)cyclopropyl)-N-(4-methyl-3-(2-(5-(pyrazin-2-ylamino)-1H-pyrazol-3-yl)ethyl)phenyl)benzamide] | 10 μM 84% |  | 2230 nM |  | 3 µM | >10 µM |  | 10 μM 93% |  |  | 10 μM 55% | ne | 3000 nM |
